Biological target: T1, human α7 nAChR (Homo sapiens, UniProt P36544)
T1 construct: expressed in transfected cells; host or cells: GH4C1 cells derived from rat pituitary (ATCC CCL-82.2)
Assay: Evaluation of PAM activity with human α7 nACh receptor stably expressing cells (aequorin luminescence, FDSS7000)
Format: cell-based
Details: for α7PAM (%) @ 10 μmol/L / activity at 10 µM: test compound 10 μmol/L, ACh added at EC20, ratio of RLU (Max-Min) of test wells to control wells; for activity at 10 µM: read-out: α7PAM (%) @ 10 μmol/L; for PAM activity for α7 nAChR: result in words, ratio of RLU (Max-Min) to control wells, ACh EC20
Procedure, shortened: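 Rat pituitary GH4C1 cells stably expressing human α7 nAChR and aequorin, loaded 4 h at room temperature with 4 μmol/L substrate, in Hanks/20 mM HEPES pH 7.4. After compound then ACh addition, 465 nm luminescence recorded 138 s; PAM activity is RLU (Max-Min) ratio to control wells.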

T1 sequence (P36544 23-502): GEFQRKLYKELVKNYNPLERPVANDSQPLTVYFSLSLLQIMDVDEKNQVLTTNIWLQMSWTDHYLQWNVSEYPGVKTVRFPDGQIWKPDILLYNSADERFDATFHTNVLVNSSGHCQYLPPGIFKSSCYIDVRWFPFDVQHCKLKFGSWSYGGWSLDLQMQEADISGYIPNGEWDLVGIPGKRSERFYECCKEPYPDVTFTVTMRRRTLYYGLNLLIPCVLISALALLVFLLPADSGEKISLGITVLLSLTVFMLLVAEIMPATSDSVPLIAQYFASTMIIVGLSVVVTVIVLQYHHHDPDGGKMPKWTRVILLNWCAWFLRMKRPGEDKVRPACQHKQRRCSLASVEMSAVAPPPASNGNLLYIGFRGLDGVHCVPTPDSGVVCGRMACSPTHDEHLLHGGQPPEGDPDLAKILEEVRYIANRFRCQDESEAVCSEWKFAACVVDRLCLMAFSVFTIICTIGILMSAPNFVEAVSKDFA

Row | α7PAM (%) @ 10 μmol/L [%] | SMILES | also measured
1 | 997 | [2H]C([2H])([2H])O[C@H]1CC[C@H](NC(=O)N2CCC(n3ncc4cc(CC)ccc43)CC2)CC1 [Example 325] | –
2 | 266 | CCc1ccc2c(c1)c(OC(F)F)nn2C1CCN(C(=O)NC2CCOCC2)CC1 [Example 209] | –
3 | 302 | O=C(NC1CCC1)N1CCC(n2ncc3cc(OC(F)(F)F)ccc32)CC1 [Example 299] | –
4 | 257 | CO[C@H]1CC[C@@H](NC(=O)N2CCC(n3ncc4cc(C5CC5)ccc43)CC2)CC1 [Example 189] | –
5 | 359 | O=C(NC1CCC(F)(F)CC1)N1CCC(n2ncc3c(C(F)(F)F)cccc32)CC1 [Example 169] | –
6 | 442 | COCc1cccc2c1cnn2C1CCN(C(=O)NC2CCCCC2)CC1 [Example 165] | –
7 | 746 | CCc1ccc2c(c1)c(OC)nn2C1CCN(C(=O)NC2CCCCC2)CC1 [Example 151] | –
8 | 353 | COC(C)Cc1ccc2c(cnn2C2CCN(C(=O)N[C@H]3CC[C@H](OC)CC3)CC2)c1 (stereo partly drawn) [Example 247] | –
9 | 618 | CCOc1c(CC)ccc2c1cnn2C1CCN(C(=O)NC2CCOCC2)CC1 [Example 274] | –
10 | 1351 | Cc1c(C2CC2)ccc2c1cnn2C1CCN(C(=O)NC2CCC(F)(F)CC2)CC1 [Example 276] | –
11 | 406 | [2H]C([2H])([2H])Oc1nn(C2CCN(C(=O)NC3CCOCC3)CC2)c2ccc(C(F)(F)F)cc12 [Example 309] | –
12 | 364 | COCC(C)c1ccc2c(cnn2C2CCN(C(=O)NC3CCC(F)(F)CC3)CC2)c1 (stereo not drawn) [Example 252] | –
13 | 494 | O=C(NC1CCC1)N1CCC(n2ncc3cc(C4CC4)ccc32)CC1 [Example 185] | –
14 | 386 | CCc1ccc2c(c1)c(OC(C)C)nn2C1CCN(C(=O)NC2CCCCC2)CC1 [Example 153] | –
15 | 341 | CCOc1c(C)ccc2c1cnn2C1CCN(C(=O)NC2CCOCC2)CC1 [Example 273] | –
16 | 979 | O=C(NC1CCC(F)(F)CC1)N1CCC(n2ncc3cc(C(F)(F)F)ccc32)CC1 [Example 164] | –
17 | 185 | COc1ccc2c(cnn2C2CCN(C(=O)N[C@H]3CC[C@H](OC)CC3)CC2)c1C [Example 279] | –
18 | 901 | COc1ccc2c(c1)c(C)nn2C1CCN(C(=O)N[C@H]2CC[C@H](OC)CC2)CC1 [Example 242] | –
19 | 195 | COC1CCC(NC(=O)N2CCC(n3ncc4c(OC(F)F)cccc43)CC2)CC1 (stereo not drawn) [Example 202] | –
20 | 366 | CCc1ccc2c(c1)c(COC)nn2C1CCN(C(=O)NC2CCC(F)(F)CC2)CC1 [Example 157] | –
21 | 274 | CC(C)Oc1cccc2c1cnn2C1CCN(C(=O)NC2CCCCC2)CC1 [Example 180] | –

Continued, compound first:

Row | SMILES | α7PAM (%) @ 10 μmol/L [%] | also measured
22 | CO[C@H]1CC[C@H](NC(=O)N2CCC(n3ncc4cc(OC(F)(F)F)ccc43)CC2)CC1 [Example 219, N-(trans-4-methoxycyclohexyl)-4-[5-(trifluoromethoxy)-1H-indazol-1-yl]piperidine-1-carboxamide] | – | activity at 10 µM: 238%
23 | O=C(NC1CCC(F)(F)CC1)N1CCC(n2ncc3cc(C4CC4)ccc32)CC1 [Example 77] | 1780 | –
24 | Cc1ccc2c(cnn2C2CCN(C(=O)C3CCC(F)(F)CC3)CC2)c1 [Example 133] | 568 | –
25 | Cc1ccc2c(cnn2C2CCN(C(=O)NC3CCCC3)CC2)c1 [Example 7] | 1044 | –
26 | CCOc1c(C)ccc2c1cnn2C1CCN(C(=O)N[C@H]2CC[C@H](OC)CC2)CC1 [Example 145, 4-(4-ethoxy-5-methyl-1H-indazol-1-yl)-N-(trans-4-methoxycyclohexyl)piperidine-1-carboxamide] | – | activity at 10 µM: 804%
27 | CCOc1ccc2c(cnn2C2CCN(C(=O)c3ccc(C(F)(F)F)cn3)CC2)c1 [Example 132] | 361 | –
28 | [2H]C([2H])([2H])O[C@H]1CC[C@H](NC(=O)N2CCC(n3ncc4cc(C)ccc43)CC2)CC1 [Example 295, 4-(5-methyl-1H-indazol-1-yl)-N-{trans-4-[(^2H3)methoxy]cyclohexyl}piperidine-1-carboxamide] | 1143 | –
29 | CCOc1ccc2c(cnn2C2CCN(C(=O)NC3CCCC3)CC2)c1 [Example 17] | 2469 | PAM activity for α7 nAChR: stronger PAM activity than others
30 | CCOc1ccc2c(cnn2C2CCN(C(=O)N[C@H]3CC[C@H](OC)CC3)CC2)c1 [Example 30] | 908 | –
31 | CCc1cnc2c(cnn2C2CCN(C(=O)NC3CCC(OC)CC3)CC2)c1 (stereo not drawn) [Example 100] | 198 | –
32 | COCc1nn(C2CCN(C(=O)NC3CCC(F)(F)CC3)CC2)c2ccc(C)cc12 [Example 36, N-(4,4-difluorocyclohexyl)-4-(3-(methoxymethyl)-5-methyl-1H-indazol-1-yl)piperidine-1-carboxamide] | – | activity at 10 µM: 897%
33 | CCc1ccc2c(cnn2[C@H]2CC[C@@H](NC(=O)C3CCOCC3)CC2)c1 [Example 120] | 654 | –
34 | Cc1ccc2c(c1)c(C1CCOCC1)nn2C1CCN(C(=O)NC2CCC(F)(F)CC2)CC1 [Example 52, N-(4,4-difluorocyclohexyl)-4-(5-methyl-3-(tetrahydro-2H-pyran-4-yl)-1H-indazol-1-yl)piperidine-1-carboxamide] | – | activity at 10 µM: 366%
35 | Cc1ccc2c(cnn2C2CCN(C(=O)NC3CCOC(C)(C)C3)CC2)c1 (stereo not drawn) [Example 12] | 231 | –
36 | COC1CCC(NC(=O)N2CCC(n3ncc4cc(F)ccc43)CC2)CC1 (stereo not drawn) [Example 29] | 206 | –
37 | COc1c(C2CC2)ccc2c1cnn2C1CCN(C(=O)N[C@H]2CC[C@H](OC)CC2)CC1 [Example 263, 4-(5-cyclopropyl-4-methoxy-1H-indazol-1-yl)-N-(trans-4-methoxycyclohexyl)piperidine-1-carboxamide] | – | activity at 10 µM: 749%
38 | CCc1ccc2c(cnn2C2CCN(C(=O)NC3CCC(F)(F)CC3)CC2)c1 [Example 23] | – | PAM activity for α7 nAChR: stronger PAM activity than others
39 | O=C(C1CCOCC1)N1CCC(n2ncc3cc(C4CC4)ccc32)CC1 [Example 140] | 265 | –
40 | COc1nn(C2CCN(C(=O)N[C@H]3CC[C@H](OC)CC3)CC2)c2ccc(C)cc12 [Example 147] | 181 | –
41 | Cc1ccc2c(cnn2C2CCN(C(=O)C3CCC(F)(F)CC3)CC2)c1 [Example 138] | 642 | –
42 | CCc1nn(C2CCN(C(=O)NC3CCC(F)(F)CC3)CC2)c2ccccc12 [Example 53] | 309 | –
43 | COCCCc1ccc2c(cnn2C2CCN(C(=O)NC3CCCC3)CC2)c1 [Example 31] | 1191 | –
44 | Cc1ccc2c(cnn2C2CCN(C(=O)C3CCCC3)CC2)c1 [Example 106] | 164 | –
45 | CC(C)Oc1ccc2c(cnn2C2CCN(C(=O)NC3CCCC3)CC2)c1 [Example 49] | 429 | –
46 | COc1ccc2c(cnn2C2CCN(C(=O)NC3CCCCC3(F)F)CC2)c1 (stereo not drawn) [Example 86] | 1481 | –
47 | COC1CCC(NC(=O)N2CCC(n3ncc4c(C)cccc43)CC2)CC1 (stereo not drawn) [Example 94] | 154 | –
48 | COC1CCC(NC(=O)N2CCC(n3nc(C4CCOCC4)c4cc(C)ccc43)CC2)CC1 (stereo not drawn) [Example 55] | 603 | –
49 | CCc1ccc2c(cnn2[C@H]2CC[C@@H](NC(=O)C3CCCCC3)CC2)c1 [Example 119] | 2154 | PAM activity for α7 nAChR: stronger PAM activity than others

From patent publication US8765786B2, “1-substituted indazole derivative” (Dainippon Sumitomo Pharma Co., Ltd., priority 2012, dated 2014)
